{"source": "patent US7635722B1", "about": "“Chemical induced intracellular hyperthermia” (priority 1998, dated 2009)", "type_in_all_cases": "in vivo, human", "key": {"candida": {"tested_on": "candida", "assay": "DNP hyperthermia, oral candidiasis (Example 2)", "experimental": "(§1) Pretreatment protocol: all medications were stopped 2 weeks prior to treatment. The patient refused taking diazepam, placement of a Foley catheter and oxygen face mask. They dressed themself into a dry cold water immersion suit (Stearns, ISS-590I, Universal Adult) designed to prevent heat loss and modified for easy placement of physiologic monitors. Equipment for measurement of heart rate, temperature, carbon dioxide production and Kcal of heat produced were conducted as outlined in Example 1. An oral breathing tube was used to measure V02 from room air. Urine output was measured when the patient voluntarily urinated through a “Texas” catheter (superficial condom tightly fitted around the head of the penis with tubing connected to urine collection bag). The patient was informed that hyperthermia would be administered as tolerated by their stamina and monitored clinical parameters, not to exceed 5 hours, on a daily or every other day basis, for a total of 5 sessions.\n(§2) Treatment procedure: Baseline reading for 5 minutes established an average V02 of 300 cc/min. An initial dose of 2 mg/kg of DNP was administered over a 2 minute period. V02 increased and stabilized at 15 minutes at 340-380 cc/min. An additional 2 mg/kg DNP infusion was given, the V02 increased and stabilized at 610-630 cc/min. […]"}, "Kaposi's sarcoma": {"tested_on": "Kaposi's sarcoma", "assay": "DNP hyperthermia, Kaposi's sarcoma lesions (Example 2)", "experimental": "as §1, §2"}, "[1]": {"tested_on": "Echinococcus multilocularis", "assay": "DNP with glucagon, hydatid disease of the liver (Example 1)", "experimental": "Pretreatment protocol: the patient was given 10 mg diazepam by mouth and dressed into a modified wet suit. The wet suit was cut lengthwise at the arms and legs. Velcro strappings were attached at the cuttings for closure, rapid removal or exposure of the limb(s). After placement of monitoring sensors, they were started on IV fluids of 5% dextrose, 0.5 normal saline with 7 meq K^+, infused at an initial rate of 12 cc/kg/hr. Evaporative heat loss from the head was minimized by a plastic shower cap and towels. A 401AC temperature probe (YSI Incorporated, Yellow Springs, Ohio) was inserted 11 cm. into the rectum. […] A TEEM 100 Metabolic Analysis System (AeroSport Inc., Ann Arbor, Mich.), with a modified face mask and oxygen delivery system (38-40% 02 saturation) for patient comfort and increased accuracy, was attached to the patient. Oxygen consumption (V02), carbon dioxide production (VC02), expired air volume (VE), heart rate (HR), and Kcal of heat produced were measured in 20 second intervals and extrapolated to minute or hourly rates.\nTreatment procedure: After baseline recordings of 10 minutes, the required amount of DNP to raise the initial V02 to achieve a temperature in the patient of 40° C. was calculated as described under “DNP dosage required to increase V02”. The patient was given an initial dose of 1 mg/kg of DNP, infused intravenously over a 3 minute period. […]"}, "heat shock protein": {"tested_on": "heat shock protein", "assay": "DNP induction of autologous heat shock proteins", "conditions": "after cessation of DNP", "experimental": "DNP would be given orally at doses to increase the V02 from 1.5 to 5 times above normal per day for a period of 2-6 days or, as an infusion at doses that would increase V02 and core body temperatures no greater than 39° C. for periods of 5 to 6 hours or, intravenous doses of DNP alone, with vasopressors, or other short acting metabolic stimulators, that would increase V02 to equivalent core temperatures of 40-41° C. for periods of 15-30 minutes. Within 8-48 hours after cessation of DNP, the patient would have maximum heat shock protein production. Such DNP induced stress would improve clinical outcome by induction of cellular heat shock protein synthesis with protection of the patient's, organs, tissues and cells from subsequent ischemic surgical or traumatic procedures."}, "hepatitis C virus": {"tested_on": "hepatitis C virus", "assay": "DNP with interferon-alpha, chronic hepatitis C (Example 10)", "experimental": "Pretreatment protocol: each evening prior to treatment the patient was instructed not to eat after 7 pm and dress in cotton clothes. Approximately 6 hours prior to intravenous DNP administration they were to be given 1.5 million units of subcutaneous interferon-alpha every 3rd day. Repeat blood work, including CBC and platelet count, AST, ALT, and hepatitis C-RNA levels would be initially obtained at 48 hours and weekly thereafter. No efforts were to be made to prevent body heat loss. A single intravenous line was placed with a 21-gauge interacath. Heart rate, rectal thermistor, and VO2 monitoring was conducted during therapy as outlined.\nTreatment procedure: the patient presented themself for outpatient treatment and was given a subcutaneous dose of 1.5 million units of interferon-alpha. Approximately 6 hours thereafter, at 1 pm, a baseline VO2 recording of 5 minutes was 160 cc/min. They were infused with 1 mg/kg DNP over a 2 minute period. At 20 minutes, their VO2 increased and stabilized at approximately 210 cc/min. A second dose of 1 mg/kg DNP was infused and the VO2 peaked 20 minutes later at 250 cc/min. An additional dose of 2.0 mg/kg DNP was given 30 minutes following the second dose. […] The patient's rectal temperature increased and never exceeded 1.3° C. above their normal baseline. Two hours after their last dose of DNP, their VO2 declined to 280 cc/min. An additional 2 mg/kg dose of DNP was administered. The patients VO2 increased and stabilized 20 minutes thereafter to a level of 420 cc/min. […] Throughout treatment the patient was permitted to drink fluids ad libitum. […] The 5 day treatment protocol was repeated after a 2 day “DNP rest period”. This regimen was repeated times 3. Subcutaneous interferon-alpha was administered for a total of 10 weeks."}}, "data": [{"smiles": "O=[N+]([O-])c1ccc(O)c([N+](=O)[O-])c1", "note": "[DNP, 2,4-dinitrophenol]", "values": [{"measurement": "oral candidiasis", "setting": "candida; 3rd day of therapy", "result": "no evidence of oral candidiasis"}, {"measurement": "improvement of oral candidiasis", "setting": "candida; immediately after the first treatment", "result": 50, "unit": "%"}, {"measurement": "anal tumor diminished in size", "setting": "Kaposi's sarcoma; 5th and last day of therapy", "result": "approximately 60%"}, {"measurement": "oral and anal KS lesions", "setting": "Kaposi's sarcoma; 30 days post-treatment", "result": "complete regression of both oral and anal KS lesions"}, {"measurement": "serial imaging of hepatic and bone cysts", "setting": "[1]; 2 and 4 weeks post treatment", "result": "hepatic and bone cyst shrinkage with increased density"}, {"measurement": "magnetic resonance imaging of cysts", "setting": "[1]; 4 months", "result": "complete cyst disappearance in the liver and bone"}, {"measurement": "time to maximum heat shock protein production", "setting": "heat shock protein", "result": "8 to 48", "unit": "h"}, {"measurement": "ALT", "setting": "hepatitis C virus; 18 months after therapy", "result": "normalization"}, {"measurement": "HCV viral genome", "setting": "hepatitis C virus; 18 months after therapy", "result": "remained cleared from their bloodstream"}, {"measurement": "decrease of hepatitis C-RNA viral load", "setting": "hepatitis C virus; after 48 hours, DNP with interferon-alpha", "result": "approximately 2 logs"}, {"measurement": "increase of alanine transaminase (ALT) levels", "setting": "hepatitis C virus; at 48 hours, elevated until week 3", "result": 7, "unit": "fold"}, {"measurement": "increase of alkaline phosphatase levels", "setting": "hepatitis C virus; at 48 hours, pretreatment levels at day 7", "result": 2, "unit": "fold"}, {"measurement": "CBC, bilirubin, and blood urea nitrogen (BUN)", "setting": "hepatitis C virus; during treatment", "result": "remained within normal limits"}, {"measurement": "further decrease of viral load", "setting": "hepatitis C virus; over the next 5 days", "result": "an additional log"}, {"measurement": "HCV-RNA", "setting": "hepatitis C virus; week 2 and thereafter", "result": "undetectable"}]}]}
